Legend:
[1] = tested on: C. elegans; test: Nematicidal activity of single fatty acid methyl ester emulsions against Caenorhabditis elegans (Example 4); type: cell-based
Experimental: Mixed stage Caenorhabditis elegans were washed off plates seeded with OP50 bacteria using M9 solution. 250 μl of the M9 solution, which contained about 50 worms, was pipetted into each well of a 24-well plate.
(§1) Fatty acid methyl ester emulsions were prepared following the teachings of Kim et al (U.S. Pat. No. 5,698,592). Briefly, 1 ml 1% stock solution emulsions were prepared by mixing 10 μl of fatty acid methyl ester with 20 μl of the surfactant Igepal CO 630 in a 1.5 ml eppendorf tube. After careful mixing of fatty acid and Igepal CO 630, 850 μl of ddH20 was added and mixed by gentle pipetting until a homogeneous solution was obtained. Finally, 120 μl of pure isopropanol was added and mixed by gentle pipetting. This stock solution was then used to produce various fatty acid methyl ester dilution emulsions in 24-well plate assays.
To each well, fatty acid emulsions or control emulsions were added and rapidly mixed by swirling. Nematode viability was scored by visual observation and motility assays at various time points 24 hours following addition of emulsions or controls. The fatty acid emulsions tested were methyl esters of nonanoic (pelargonic) acid, ricinoleic acid, vernolic acid, linoleic acid, oleic acid, and control emulsions lacking fatty acids.

[2] = tested on: M. javanica; test: Nematicidal activity of fatty acid methyl ester emulsions against root knot nematode J2 larvae (Example 6); type: cell-based, Meloidogyne javanica; conditions: 0.1% emulsion; 48 hours incubation, counted about 24 hours after transfer to plates
Experimental: as §1
(§2) Meloidogyne incognita and javanica were prepared from tomato roots. The roots were bleached and the debris was separated from the J2 larvae and eggs by filtration followed by sucrose density gradient centrifugation. Eggs were hatched over 4 days at 15° C. and the J2 larvae were collected by passage though a filter, followed by centrifugation.
(§3) Nematodes and emulsions were incubated with shaking at room temperature for 48 hours. The contents of each well were transferred to a small spot on individual NGM plates lacking bacteria. About 24 hours after the transfer to plates, worms on and off the inoculation spot were counted as not viable or viable, respectively. Worms were considered viable if they had crawled away from the inoculation spot, or if they were moving. Worms were considered non-viable if they remained at the inoculation spot.

[3] = tested on: M. incognita; test: as above; type: cell-based, Meloidogyne incognita; conditions: 0.1% emulsion; 48 hours incubation, counted about 24 hours after transfer to plates
Experimental: as §1, §2, §3

[4] = tested on: root knot nematodes (Meloidogyne spp.); test: Nematicidal activity against root knot nematodes, summary statement; type: cell-based; conditions: concentration of 0.1%
Experimental: as §2, §3

[5] = tested on: C. elegans; test: Nematicidal activity of fatty acid methyl ester emulsions, spectrum (Example 8); type: cell-based, Caenorhabditis elegans; conditions: C. elegans mixed stage
Experimental: (§4) Briefly, the indicated fatty acid emulsions were added and rapidly mixed by swirling. Nematode viability was scored by visual observation and motility assays 24 hours following addition of emulsions (48 hours for plant parasitic nematodes Meloidogyne and Heterodera species). The fatty acid emulsions tested were methyl esters of nonanoic (pelargonic) acid, ricinelaidic acid, ricinoleic acid, vernolic acid, linoleic acid, and oleic acid. […] Results shown are mean % values obtained from multiple independent experiments
(§5) The Caenorhabiditis elegans were mixed stage populations. Similar effects seen on several other free-living nematode species. The Parastrongyloides trichosuri (parasite of Australian bushtail possum) were dauer-like infective 3rd stage larva. Similar effects are also seen against free-living stages. The Meloidogyne incognita and Meloidogyne javanica (root knot nematode) were 2nd stage juveniles (dauer-like infective stage). The Heterodera glycines (soybean cyst nematode) were 2nd stage juveniles (dauer-like infective stage). Finally, the Pratylenchus scribneri (corn lesion nematode) were mixed stage populations.

[6] = tested on: P. trichosuri; test: as above; type: cell-based, Parastrongyloides trichosuri; conditions: P. trichosuri infective 3rd stage larva
Experimental: as §4, §5

[7] = tested on: M. incognita; test: as above; type: cell-based, Meloidogyne incognita; conditions: M. incognita 2nd stage juveniles, scored at 48 hours
Experimental: as §4, §5

[8] = tested on: M. javanica; test: as above; type: cell-based, Meloidogyne javanica; conditions: M. javanica 2nd stage juveniles, scored at 48 hours
Experimental: as §4, §5

[9] = tested on: H. glycines; test: as above; type: cell-based, Heterodera glycines; conditions: H. glycines 2nd stage juveniles, scored at 48 hours
Experimental: as §4, §5

[10] = tested on: P. scribneri; test: as above; type: cell-based, Pratylenchus scribneri; conditions: P. scribneri mixed stage
Experimental: as §4, §5

[11] = tested on: B. malayi; test: Nematicidal activity of tween-based emulsions against microfilarial nematodes; type: cell-based, Brugia malayi
Experimental: To each well, tween-based fatty acid emulsions were added and rapidly mixed by swirling. Nematode microfilaria viability was scored by visual observation of motility at 24 and 48 hours following addition of emulsions. The fatty acid emulsions tested were methyl esters of ricinoleic acid, vernolic acid, ricinelaidic acid, oleic acid, and control emulsions lacking fatty acids. The results of this study are presented in Table 7 as the percentage of non-motile microfilaria 24 hours after inoculation and in Table 8 as the percentage of non-motile microfilaria 48 hours after inoculation

[12] = tested on: tomato seedlings; test: Phytotoxicity evaluation on tomato seedlings; type: in vivo; conditions: for Phytotoxic effect on tomato seedlings: 1% emulsion
Experimental: Sterilized tomato seeds were germinated in magenta jars containing Gamborg's agar media. After two weeks of growth, seedlings were treated with 250 μl of 1% fatty acid methyl ester emulsion (nonanoic acid, ricinoleic acid, ricinelaidic acid, oleic acid, or a control emulsion lacking any fatty acid), applied directly to the stem-media interface. Tomato seedlings were scored at various times after application of emulsions.

[13] = tested on: C. elegans; test: Nematicidal activity of emulsions made with Tween-20 (replacing Igepal CO 630) against C. elegans; type: cell-based, Caenorhabditis elegans; conditions: Tween-20 emulsion
Experimental: Some nematodes assayed as described in Example 9 lacked tolerance to emulsions made with the surfactant Igepal CO 630. For this reason some assays were repeated with Tween-20-based emulsions.
Briefly, 1 ml 1% stock solution emulsions were prepared by mixing 10 μl of fatty acid methyl ester with 20 μl of the surfactant Tween-20 in a 1.5 ml eppendorf tube. After careful mixing of fatty acid and Tween-20, 850 μl of ddH20 was added and mixed by gentle pipetting until a homogeneous solution was obtained. Finally, 120 μl of pure isopropanol was added and mixed by gentle pipetting. This stock solution was then used to produce various fatty acid methyl ester dilution emulsions in 24-well plate assays.

CCCCC[C@H]1O[C@H]1C/C=C\CCCCCCCC(=O)OC [Vernolic Acid (C18-methyl ester), (12,13)-epoxy-cis-9-octadecenoic acid methyl ester]
Percentage of Worm Death ([1]; 0.003% emulsion, 1 hr): 20% | Percentage of Worm Death ([1]; 0.003% emulsion, 6 hr): 20% | Percentage of Worm Death ([1]; 0.003% emulsion, 24 hr): 20% | Percentage of Worm Death ([1]; 0.1% emulsion, 1 hr): 65% | Percentage of Worm Death ([1]; 0.1% emulsion, 6 hr): 65% | Percentage of Worm Death ([1]; 0.1% emulsion, 24 hr): 75% | M. javanica (% not viable) [2]: 90% | M. incognita (% not viable) [3]: 100% | Nematicidal activity (in words) [4]: significant nematicidal activity | % Worm Death (24 hr) ([5]; 0.001% solution): 30% | % Worm Death (24 hr) ([5]; 0.01% solution): 50% | % Worm Death (24 hr) ([5]; 0.1% solution): 80% | % Worm Death (24 hr) ([6]; 0.01% solution): ˜90% | % Worm Death (24 hr) ([6]; 0.1% solution): ˜95% | % Worm Death (24 hr) ([7]; 0.01% solution): 73% | % Worm Death (24 hr) ([7]; 0.1% solution): 98% | % Worm Death (48 hr) ([8]; 0.01% solution): 60% | % Worm Death (48 hr) ([8]; 0.1% solution): 90% | % Worm Death (24 hr) ([9]; 0.001% solution): 18% | % Worm Death (24 hr) ([9]; 0.01% solution): 20% | % Worm Death (24 hr) ([9]; 0.1% solution): 30% | % Worm Death (24 hr) ([10]; 0.01% solution): <20% | % Worm Death (24 hr) ([10]; 0.1% solution): <20% | percentage of non-motile microfilaria ([11]; 24 hrs post-inoculation, 0.0008%): 0% | percentage of non-motile microfilaria ([11]; 24 hrs post-inoculation, 0.0016%): 0% | percentage of non-motile microfilaria ([11]; 24 hrs post-inoculation, 0.003%): 0% | percentage of non-motile microfilaria ([11]; 24 hrs post-inoculation, 0.005%): 66% | percentage of non-motile microfilaria ([11]; 24 hrs post-inoculation, 0.0067%): 100% | percentage of non-motile microfilaria ([11]; 24 hrs post-inoculation, 0.008%): 100% | percentage of non-motile microfilaria ([11]; 48 hrs post-inoculation, 0.0008%): 0% | percentage of non-motile microfilaria ([11]; 48 hrs post-inoculation, 0.0016%): 0% | percentage of non-motile microfilaria ([11]; 48 hrs post-inoculation, 0.003%): 5% | percentage of non-motile microfilaria ([11]; 48 hrs post-inoculation, 0.005%): 100% | percentage of non-motile microfilaria ([11]; 48 hrs post-inoculation, 0.0067%): 100% | percentage of non-motile microfilaria ([11]; 48 hrs post-inoculation, 0.008%): 100%

CCCCCCCCC(=O)OC [Nonanoic (C9-methyl ester), pelargonic acid methyl ester, reference compound]
Percentage of Worm Death ([1]; 0.003% emulsion, 1 hr): 50% | Percentage of Worm Death ([1]; 0.003% emulsion, 6 hr): 50% | Percentage of Worm Death ([1]; 0.003% emulsion, 24 hr): 50% | Percentage of Worm Death ([1]; 0.1% emulsion, 1 hr): 100% | Percentage of Worm Death ([1]; 0.1% emulsion, 6 hr): 100% | Percentage of Worm Death ([1]; 0.1% emulsion, 24 hr): 100% | Nematicidal activity (in words) ([1]; concentration of 0.1%): strongly nematicidal | Onset of effect on nematode movement (in words) ([1]; emulsion, C. elegans): almost immediate cessation of nematode movement and subsequent death | M. javanica (% not viable) [2]: 100% | M. incognita (% not viable) [3]: 100% | Nematicidal activity (in words) [4]: significant nematicidal activity | Phytotoxic effect on tomato seedlings ([12]; within 18 hours of application): distinct loss of turgor pressure (wilting phenotype) | Phytotoxic effect on tomato seedlings ([12]; within 24 hours): almost entirely bleached to a pale white color and had nearly totally collapsed | Visible effects on tomato seedlings ([12]; 250 μl of 1% emulsion applied to stem-media interface of two-week seedlings): showed obvious effects on the tomatoes | % Worm Death (24 hr) ([5]; 0.001% solution): 30% | % Worm Death (24 hr) ([5]; 0.01% solution): 100% | % Worm Death (24 hr) ([5]; 0.1% solution): 100% | % Worm Death (24 hr) ([7]; 0.1% solution): 100% | % Worm Death (48 hr) ([8]; 0.1% solution): 100% | % Worm Death (24 hr) ([9]; 0.01% solution): >95% | % Worm Death (24 hr) ([9]; 0.1% solution): 100% | % Worm Death (24 hr) ([10]; 0.01% solution): <20% | % Worm Death (24 hr) ([10]; 0.1% solution): <20% | % Worm Death (24 hr) ([13]; 0.001% solution): 30% | % Worm Death (24 hr) ([13]; 0.01% solution): 100% | % Worm Death (24 hr) ([13]; 0.1% solution): 100%

— patent US6903052B2, “Nematicidal compositions and methods” (Divergence, Inc., priority 2002, dated 2005)
